Results on 35 molecules are retold here after patent publication US8835426B2, “Cyclic urea and carbamate inhibitors of 11β-hydroxysteroid dehydrogenase 1” (Vitae Pharmaceuticals, Inc., priority 2007, dated 2014).

As usually defined, the IC50 is the concentration at which inhibition is half-maximal.

In test [1] the target is T1, purified 11β-HSD1 (recombinant, expressed in E. coli) (Homo sapiens, UniProt P28845).
T1 construct: made in house; host or cells: E. coli
The test is described as follows: Inhibition of purified 11β-HSD1, Scintillation Proximity Assay. Type of test: biochemical. Conditions: recombinant enzyme, 3H cortisone, NADPH, room temperature. As to the method:
(§1) The inhibition of purified 11β-HSD1 by compounds of Formula I was measured as follows using a Scintillation Proximity Assay. All reactions were carried out at room temperature in 96 well flexible Microbeta reaction plates. The assay begins by adding 1 microliter of a 0.1 mM solution of a compound of Formula I in DMSO previously diluted in half-log increments (8 points) starting at 1 micromolar final concentration. To this dot was added 50 microliters of substrate solution (50 mM HEPES, pH 7.4, 100 mM KCl, 5 mM NaCl, 2 mM MgCl2 containing […] of ^3H cortisone, 1 mM NADPH). After a 10 minute incubation, 50 microliters of enzyme solution containing 20 nM recombinant 11β-HSD1 (expressed in E. coli, and affinity purified) was added, The reaction was incubated for 90 minutes, and stopped by adding 50 microliters of SPA bead mix (18-β-glycyrrhetinic acid, 10 micromolar final, 5 mg/ml protein A coated YSi SPA beads, and 1-microgram/ml alpha-cortisol antibody (East Coast Biologics). The plate shaken for 120 minutes, and the radioactivity corresponding to ^3H cortisol was measured on a Wallac Microbeta.

Test [2] has as its target T2, 11β-HSD1 in whole cells (omental adipocytes) (Homo sapiens, UniProt P28845).
T2 construct: host or cells: omental adipocytes differentiated from preadipocytes
The test is described as follows: Inhibition of 11β-HSD1 in whole cells (omental adipocytes), cortisone to cortisol conversion, SPA. Conditions: 100 nM [3H] cortisone, 37 degrees C. Type of test: cell-based. As to the method:
The inhibition of 11β-HSD1 by compounds of Formula I in whole cells was measured as follows. Omental adipocytes cultured in 96-well plates were purchased from Zen-Bio, Inc. and used at least two weeks after differentiation from precursor preadipocytes started in medium supplemented with adipogenic and lipogenic hormones (human insulin, dexamethasone, isobutylmethylxanthine and PPAR-gamma agonist). The cells were maintained in full adipocyte medium (DMEM/Ham's F-12 (1:1, v/v), HEPES pH 7.4, fetal bovine serum, penicillin, streptomycin and Amphotericin B, supplied by Zen-Bio, Inc.) at 37 degrees C., 5% CO2 and transferred into serum-free, phenol red free medium for overnight incubation. The assay was performed in a total volume of 200 microliters. The cells were pre-incubated with serum-free, phenol red free medium containing 0.1% (v/v) of DMSO and various concentrations of compounds of Formula I at least 1 h before [^3H] cortisone in ethanol (50 Ci/mmol, ARC, Inc.) was added to achieve final concentration of cortisone of 100 nM. The cells were incubated for 3-4 at 37 degrees Centigrade, 5% CO2. Negative controls were incubated without radioactive substrate and received the same amount of [^3H] cortisone at the end of the incubation. Formation of [^3H] cortisol was monitored by analyzing 25 microliters of each supernatant in scintillation proximity assay (SPA). (Solly, K.; Mundt, S. S.; Zokian, H. J.; Ding, G. J.; Hermanowski-Vosatka, A.; Strulovici, B.; Zheng, W. Assay Drug Dev. Technol. 2005, 3, 377-384),

The target in test [3] is microsomal 11β-HSD1 (Homo sapiens, UniProt P28845). The test can be described thus: Inhibition of microsomal 11β-HSD1, Scintillation Proximity Assay. As to conditions: microsomal enzyme, same manner as purified enzyme assay. Type of test: biochemical. The protocol:
as §1
The inhibition of microsomal 11β-HSD1 was carried out in the same manner.
(In general: SPA uses beads or plates that emit light when radiolabelled molecules are held near them.)

T2 sequence (P28845 whole entry): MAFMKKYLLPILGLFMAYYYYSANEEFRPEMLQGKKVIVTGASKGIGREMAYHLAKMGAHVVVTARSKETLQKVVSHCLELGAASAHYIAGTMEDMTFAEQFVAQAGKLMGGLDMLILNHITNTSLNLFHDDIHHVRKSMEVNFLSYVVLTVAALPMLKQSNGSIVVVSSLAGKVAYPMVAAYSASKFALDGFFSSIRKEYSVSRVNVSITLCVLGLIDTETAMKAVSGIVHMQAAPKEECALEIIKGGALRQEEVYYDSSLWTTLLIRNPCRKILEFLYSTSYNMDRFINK
T1 sequence (P28845 whole entry): as above
Chain of microsomal 11β-HSD1 (P28845 whole entry): as above

`O=C1OC(c2ccc(O)cc2)CN1CC12CC3CC(CC(C3)C1)C2` (centres unmarked) [Example 17, 3-(1-adamantylmethyl)-5-(4-hydroxyphenyl)oxazolidin-2-one]: the IC50 in test [1] lay within 0.05 to 1 µM.
`O=C1O[C@@H](C2CCCCC2)CN1C1C2CC3CC(C2)CC1C3` (stereo partly drawn) [Example 20, (S)-3-(2-adamantyl)-5-cyclohexyloxazolidin-2-one]: the IC50 in test [1] and in test [2] was below 0.05 µM throughout.
As to `CC[C@H]1CN(CC23CC4CC(CC(C4)C2)C3)C(=O)O1` [Example 10, (S)-3-((1-adamantyl)methyl)-5-ethyloxazolidin-2-one], the IC50 in test [1] lay in the range of 0.05 to 1 µM.
As to `O=C1OC(c2cccc(-c3ccccc3)c2)CN1C1C2CC3CC(C2)CC1C3` (racemic) [Example 37, (±)-5-(biphenyl-3-yl)-3-(2-adamantyl)oxazolidin-2-one], the IC50 is below 0.05 µM in test [3] and 0.05 to 1 µM in test [2].
With `CC(C)C[C@H]1CN(C2C3CC4CC(C3)CC2C4)C(=O)O1` (stereo partly drawn) [Example 5, (S)-3-(2-adamantyl)-5-isobutyloxazolidin-2-one], the IC50 in test [1] and in test [2] was below 0.05 µM throughout.
As to `CC(C)[C@H]1CN(C2C3CC4CC(C3)CC2C4)C(=O)N1` (stereo partly drawn) [Example 33, (S)-4-isopropyl-1-(2-adamantyl)imidazolidin-2-one], the IC50 in test [3] and in test [2] was below 0.05 µM in each case.
`O=C1OC(c2cccc(Br)c2)CN1C1C2CC3CC(C2)CC1C3` (racemic) [Example 34, (±)-5-(3-bromophenyl)-3-(2-adamantyl)oxazolidin-2-one] came in with an IC50 in test [3] below 0.05 µM.
As to `O=C1O[C@@H](C2CCCCC2)CN1CC1C2CC3CC(C2)CC1C3` (stereo partly drawn) [Example 19, (S)-3-((2-adamantyl)methyl)-5-cyclohexyloxazolidin-2-one], in test [1], the IC50 fell in the range of 0.05 to 1 µM.
`O=C1O[C@@H](C2CCCCC2)CN1CC12CC3CC(CC(C3)C1)C2` [Example 18, (S)-3-((1-adamantyl)methyl)-5-cyclohexyloxazolidin-2-one]: the IC50 in test [1] is below 0.05 µM; in test [2], 0.05 to 1 µM.
In the case of `O=C1O[C@@H](c2ccccc2)CN1CC1C2CC3CC(C2)CC1C3` (stereo partly drawn) [Example 11, (S)-3((2-adamantyl)methyl)-5-phenyloxazolidin-2-one], the IC50 in test [1] was in the range of 0.05 to 1 µM.
Same read-out and setting: as for `CC(C)C[C@H]1CN(C2C3CC4CC2CC(O)(C4)C3)C(=O)O1` (single isomer, unassigned) [Example 13A], the figure is 0.05 to 1 µM.
`C[C@]1(c2ccccc2)CN(C2C3CC4CC(C3)CC2C4)C(=O)O1` (stereo partly drawn) [Example 16, (S)-3-(2-adamantyl)-5-methyl-5-phenyloxazolidin-2-one]: the IC50 in test [1] and in test [2] was below 0.05 µM each time.
`O=C1O[C@@H](c2ccccc2Cl)CN1CC12CC3CC(CC(C3)C1)C2` [Example 7, (S)-3-((1-adamantyl)methyl)-5-(2-chlorophenyl)oxazolidin-2-one]: the IC50 in test [1] was below 0.05 µM; in test [2], 0.05 to 1 µM.
Consider `CC1CCN(CC23CC4CC(CC(C4)C2)C3)C(=O)O1` (centres unmarked) [Example 26, 3-((1-adamantyl)methyl)-6-methyl-1,3-oxazinan-2-one], for which the IC50 in test [1] lay within 0.05 to 1 µM.
Still for that read-out and setting: the figure for `CC(C)CC1CCN(CC23CC4CC(CC(C4)C2)C3)C(=O)O1` (centres unmarked) [Example 23, 3((1-adamantyl)methyl)-6-isobutyl-1,3-oxazinan-2-one] is 0.05 to 1 µM; for `O=C1O[C@@H](Cc2ccccc2)CN1CC12CC3CC(CC(C3)C1)C2` [Example 6, (S)-5-benzyl-3-((1-adamantyl)methyl)oxazolidin-2-one] it is 0.05 to 1 µM.
Turning to `O=C1N[C@@H](C2CCCCC2)CN1C1C2CC3CC(C2)CC1C3` (stereo partly drawn) [Example 32, (S)-4-cyclohexyl-1-(2-adamantyl)imidazolidin-2-one], the IC50 in test [3] and in test [2] was below 0.05 µM each time.
Consider `C[C@@H]1[C@H](c2ccccc2)OC(=O)N1CC12CC3CC(CC(C3)C1)C2` [Example 25, (4R,5S)-3-((1-adamantyl)methyl)-4-methyl-5-phenyloxazolidin-2-one], for which the IC50 in test [1] and in test [2] was below 0.05 µM each time.
On to `O=C1O[C@@H](c2ccccc2)CN1C1C2CC3CC(C2)CC1C3` (stereo partly drawn) [Example 14, (S)-3-(2-adamantyl)-5-phenyloxazolidin-2-one], for which the IC50 in test [1] was 0.05 to 1 µM.
The same measure, in the same setting: as for `O=C1O[C@H](c2ccccc2)CN1C1C2CC3CC(C2)CC1C3` (stereo partly drawn) [Example 15, (R)-3-(2-adamantyl)-5-phenyloxazolidin-2-one], the figure is 0.05 to 1 µM.
As for `O=C1O[C@@H](c2ccccc2)CN1CC12CC3CC(CC(C3)C1)C2` [Example 1, (S)-3-((1-adamantyl)methyl)-5-phenyloxazolidin-2-one], the IC50 in test [1] is below 0.05 µM; in test [2] it was 0.05 to 1 µM.
In the case of `CC(C)C[C@H]1CN(C2C3CC4CC2CC(O)(C4)C3)C(=O)O1` (single isomer, unassigned) [Example 13B], the IC50 in test [1] is above 1 µM.
For the molecule `O=C1OC(c2ccc(-c3ccccc3)cc2)CN1C1C2CC3CC(C2)CC1C3` (racemic) [Example 38, (±)-5-(biphenyl-4-yl)-3-(2-adamantyl)oxazolidin-2-one], the IC50 in test [3] was below 0.05 µM.
For `O=C1OC(c2cccc(Cl)c2)CN1CC12CC3CC(CC(C3)C1)C2` (racemic) [Example 9, (±)-3((1-adamantyl)methyl)-5-(3-chlorophenyl)oxazolidin-2-one], the concentration for half-maximal inhibition (IC50) in test [1] lay in the range of 0.05 to 1 µM.
Molecule `CC(C)CC1(CO)CN(CC23CC4CC(CC(C4)C2)C3)C(=O)N1` (racemic) [Example 36, (±)-1-(1-adamantylmethyl)-4-(hydroxymethyl)-4-isobutylimidazolidin-2-one] returned an IC50 in test [3] of 0.05 to 1 µM.
As for `O=C1OC(C2CCC(O)CC2)CN1CC12CC3CC(CC(C3)C1)C2` (single isomer, unassigned) [Example 22B, 3-(1-adamantylmethyl)-5-(4-hydroxycyclohexyl)oxazolidin-2-one], in test [1], the IC50 was 0.05 to 1 µM.
As to `CC(C)C[C@H]1CN(CC23CC4CC(CC(C4)C2)C3)C(=O)O1` [Example 2, (S)-3-((1-adamantyl)methyl)-5-isobutyloxazolidin-2-one], the IC50 was below 0.05 µM in test [1] and 0.05 to 1 µM in test [2].
Turning to `CC(C)(C)[C@H]1CN(C2C3CC4CC(C3)CC2C4)C(=O)N1` (stereo partly drawn) [Example 27, (S)-1-(2-adamantyl)-4-tert-butylimidazolidin-2-one], the IC50 in test [1] and in test [2] was below 0.05 µM each time.
As for `CC(C)(C)[C@H]1CN(CC23CC4CC(CC(C4)C2)C3)C(=O)O1` [Example 8, (S)-3-((1-adamantyl)methyl)-5-(t-butyl)oxazolidin-2-one], the half-maximal inhibitory concentration (IC50) in test [1] and in test [2] was below 0.05 µM throughout.
Molecule `CC(C)CC1(CO)CN(C2C3CC4CC(C3)CC2C4)C(=O)N1` (racemic) [Example 35, (±)-1-(2-adamantyl)-4-(hydroxymethyl)-4-isobutylimidazolidin-2-one] displayed an IC50 in test [3] below 0.05 µM.
As to `O=C1O[C@H](c2ccccc2)CN1CC12CC3CC(CC(C3)C1)C2` [Example 3, (R)-3((1-adamantyl)methyl)-5-phenyloxazolidin-2-one], the IC50 in test [1] was in the range of 0.05 to 1 µM.
With `O=C1O[C@H](C2CCCCC2)CN1C1C2CC3CC(C2)CC1C3` (stereo partly drawn) [Example 21, (R)-3-(2-adamantyl)-5-cyclohexyloxazolidin-2-one], the IC50 in test [1] and in test [2] was below 0.05 µM each time.
Regarding `O=C1OC(c2ccc(Br)cc2)CN1C1C2CC3CC(C2)CC1C3` (racemic) [Example 29, (±)-5-(4-bromophenyl)-3-(2-adamantyl)oxazolidin-2-one], in test [3], the IC50 was below 0.05 µM.
Turning to `CC(C)C[C@H]1CN(C23CC4CC(CC(C4)C2)C3)C(=O)O1` [Example 4, (S)-3-(1-adamantyl)-5-isobutyloxazolidin-2-one], the IC50 in test [1] and in test [2] was below 0.05 µM throughout.
Take `O=C1N[C@H](CO)CN1CC12CC3CC(CC(C3)C1)C2` [Example 24, (S)-1-((1-adamantyl)methyl)-4-(hydroxymethyl)imidazolidin-2-one]: the IC50 in test [1] lay within 0.05 to 1 µM.
